Values after ≈ are worked out from the molar mass of the structure shown. Like-named read-outs stand apart in the source and are kept apart here. Marks after values point to notes of the source that are not given here.
Assays:
Type in all cases: cell-based
[1] = tested on: S. epidermidis UC-20207; assay: Microtiter-plate adherence assay on polystyrene; conditions: for Adherence Mean OD550: S. epidermidis UC-20207, 18 h
Method: (§1) Briefly, the inoculum was established by the direct colony suspension method using the Prompt™ Inoculation System (Becton Dickinson, Sparks, Md.). The bacteria suspension, which was equal to the turbidity of a 0.5 McFarland standard, was diluted in TSB to a concentration of 1×10^6 colony forming units per ml (CFU/mL). One hundred microliters of the cell suspension was added to flat-bottom polystyrene wells (Corning Costar, Corning, N.Y.) containing 100 μl of TSB, with and without drug. The final inoculum concentration per well was approximately 5×10^5 CFU/mL. The plates were incubated at 37° C. under static conditions in air. At 18 hours (h) post-infection, the optical density of bacterial growth was measured at a wavelength of 595 nm in a microtiter plate reader (Vmax; Molecular Devices, Sunnyvale, Calif.). […] Adherent “sessile” cells then were fixed with 3.7% (v/v) formaldehyde/2% (w/v) sodium acetate and stained with 0.1% (w/v) crystal violet. Excess stain was rinsed off with deionized water and the plates were air-dried for 4 h. The optical density of bacterial adherence was determined at a wavelength of 550 nm. […] To compensate for background absorbance, optical density readings from wells treated with sterile medium, fixative and stain as described above were averaged and then subtracted from all test and control wells. Relative inhibition of adherence or growth was expressed by the following equation: (OD of control well−OD of treated well/OD of control well)×100, where OD is the mean optical density of six replicate wells from two separate experiments (three replicates per experiment). Control was defined as infected, drug-free cultures.
(§2) The primary efficacy variable in this study was the measurement of adherent bacterial cells to polystyrene after 18 h of growth. To determine whether statistically significant differences existed between treatment groups (MIC, ½ MIC, and ¼ MIC) compared with the infected-nontreated controls, the Kruskal-Wallis one-way analysis of variance (ANOVA) was applied for each clinical strain. Statistical significance was defined as p-values ≦0.05. An asterisk (*) was placed by all test values less than or equal to the specified significance level.

[2] = tested on: S. epidermidis RP62A; assay: Microtiter-plate adherence assay on polystyrene; conditions: 18 h; for Adherence Mean OD550: S. epidermidis RP62A
Method: as §1, §2

[3] = tested on: S. epidermidis UC-20207; assay: Time course adherence assay (prophylactic and delayed treatment); conditions: for inhibition at 1 µg/mL / inhibition at 2 µg/mL / inhibition at 4 µg/mL / inhibition at 80 µg/mL: Staphylococcus epidermidis, read-out: Percent inhibition of bacterial adherence relative to controls; for Mean OD550: UC-20207
Method: (§3) Drug effects on bacterial adherence were measured 18 hours after treatment initiation using a quantitative spectrophotometric assay.
(§4) Relative inhibition of adherence was expressed by the following equation: (OD of control well−OD of treated well/OD of control well)×100, where OD is the mean optical density of six replicate wells from two separate experiments (three replicates per experiment). Control was defined as infected, drug-free cultures.
(§5) The primary efficacy variable in this study was the measurement of adherent bacteria to polystyrene surfaces after 18 hours to 24 hours of growth. To determine whether statistically significant differences existed between treatments (4×MIC, 2×MIC, MIC, and ½ MIC) compared with the infected-nontreated controls, multiple comparisons according to Dunnett's test (Montgomery, Design and Analysis of Experiments (1991)) were applied for each clinical strain. Differences were considered statistically significant when p<0.05.

[4] = tested on: S. epidermidis RP62A; assay: as above; conditions: for inhibition at 1 µg/mL / inhibition at 2 µg/mL / inhibition at 4 µg/mL / inhibition at 8 µg/mL: Staphylococcus epidermidis, read-out: Percent inhibition of bacterial adherence relative to controls
Method: as §3, §4, §5

[5] = tested on: S. epidermidis UC-20208; assay: Determination of minimum inhibitory concentration (microdilution); conditions: Staphylococcus epidermidis, UC20208; S. epidermidis UC-20208; 18 h; read-out: MIC (minimum inhibitory concentration)
[6] = Staphylococcus epidermidis, UC20207, 18 h, read-out: Adherence % Inhibition
[7] = Staphylococcus epidermidis, RP62A, read-out: Adherence % Inhibition
[8] = 1.0 μg/ml, treatment 0 h post-infection
[9] = 1.0 μg/ml, treatment 2 h post-infection
[10] = 1.0 μg/ml, treatment 4 h post-infection
[11] = 1.0 μg/ml, treatment 6 h post-infection
[12] = 2.0 μg/ml (MIC), treatment 0 h post-infection
[13] = 2.0 μg/ml (MIC), treatment 2 h post-infection
[14] = 2.0 μg/ml (MIC), treatment 4 h post-infection
[15] = 2.0 μg/ml (MIC), treatment 6 h post-infection
[16] = 4.0 μg/ml, treatment 0 h post-infection
[17] = 4.0 μg/ml, treatment 2 h post-infection
[18] = 4.0 μg/ml, treatment 4 h post-infection
[19] = 4.0 μg/ml, treatment 6 h post-infection

## CC(=O)NC[C@H]1CN(c2ccc(N3CCOCC3)c(F)c2)C(=O)O1 [Linezolid, (S)-N-[[3-[3-fluoro-4-(4-morpholinyl)phenyl]-2-oxo-5-oxazolidinyl]methyl]acetamide]
[1]; drug 0.5 μg/ml
  Adherence Mean OD550: 0.513 ± 0.227*
[1]; drug 1.0 μg/ml
  Adherence Mean OD550: 0.007 ± 0.002*
[1]; drug 2.0 μg/ml (MIC)
  Adherence Mean OD550: 0.010 ± 0.005*
[1]; [6]
  inhibition at 0.5 µg/mL: 76.9%
  inhibition at 1 µg/mL: 99.7%
  inhibition at 2 µg/mL: 99.5%
[2]; drug 0.5 μg/ml
  Adherence Mean OD550: 0.125 ± 0.133*
[2]; drug 1.0 μg/ml
  Adherence Mean OD550: 0.002 ± 0.002*
[2]; drug 2.0 μg/ml (MIC)
  Adherence Mean OD550: 0.001 ± 0.001*
[2]; [7]
  inhibition at 0.5 µg/mL: 95.5%
  inhibition at 1 µg/mL: 99.9%
  inhibition at 2 µg/mL: 100%
[3]; UC20207, 0 h
  inhibition at 1 µg/mL: 96.5%
  inhibition at 2 µg/mL: 99%
  inhibition at 4 µg/mL: 99.6%
  inhibition at 80 µg/mL: 99.8%
[3]; UC20207, 2 h
  inhibition at 1 µg/mL: 97.5%
  inhibition at 2 µg/mL: 99.8%
  inhibition at 4 µg/mL: 99.7%
  inhibition at 80 µg/mL: 99.6%
[3]; UC20207, 4 h
  inhibition at 1 µg/mL: 68.4%
  inhibition at 2 µg/mL: 87.8%
  inhibition at 4 µg/mL: 99.2%
  inhibition at 80 µg/mL: 99%
[3]; UC20207, 6 h
  inhibition at 1 µg/mL: 0%
  inhibition at 2 µg/mL: 0%
  inhibition at 4 µg/mL: 41.4%
  inhibition at 80 µg/mL: 75.1%
[3]; [8]
  Mean OD550: 0.084 ± 0.049
[3]; [9]
  Mean OD550: 0.064 ± 0.046
[3]; [10]
  Mean OD550: 0.921 ± 0.119
[3]; [11]
  Mean OD550: 2.757 ± 0.173
[3]; [12]
  Mean OD550: 0.024 ± 0.005
[3]; [13]
  Mean OD550: 0.004 ± 0.002
[3]; [14]
  Mean OD550: 0.356 ± 0.418
[3]; [15]
  Mean OD550: 2.938 ± 0.119
[3]; [16]
  Mean OD550: 0.009 ± 0.004
[3]; [17]
  Mean OD550: 0.007 ± 0.001
[3]; [18]
  Mean OD550: 0.022 ± 0.010
[3]; [19]
  Mean OD550: 1.558 ± 0.094
[3]; linezolid 80 μg/ml, treatment 0 h post-infection
  Mean OD550: 0.005 ± 0.002
[3]; linezolid 80 μg/ml, treatment 2 h post-infection
  Mean OD550: 0.009 ± 0.003
[3]; linezolid 80 μg/ml, treatment 4 h post-infection
  Mean OD550: 0.028 ± 0.020
[3]; linezolid 80 μg/ml, treatment 6 h post-infection
  Mean OD550: 0.662 ± 0.103
[4]; [8]
  Mean OD550: 0.000 ± 0.002
[4]; [9]
  Mean OD550: 0.000 ± 0.000
[4]; [10]
  Mean OD550: 0.000 ± 0.001
[4]; [11]
  Mean OD550: 0.274 ± 0.183
[4]; [12]
  Mean OD550: 0.004 ± 0.004
[4]; [13]
  Mean OD550: 0.001 ± 0.001
[4]; [14]
  Mean OD550: 0.003 ± 0.005
[4]; [15]
  Mean OD550: 0.083 ± 0.067
[4]; [16]
  Mean OD550: 0.002 ± 0.002
[4]; [17]
  Mean OD550: 0.003 ± 0.002
[4]; [18]
  Mean OD550: 0.002 ± 0.004
[4]; [19]
  Mean OD550: 0.082 ± 0.051
[4]; 8.0 μg/ml, treatment 0 h post-infection
  Mean OD550: 0.002 ± 0.002
[4]; 8.0 μg/ml, treatment 2 h post-infection
  Mean OD550: 0.003 ± 0.001
[4]; 8.0 μg/ml, treatment 4 h post-infection
  Mean OD550: 0.000 ± 0.001
[4]; 8.0 μg/ml, treatment 6 h post-infection
  Mean OD550: 0.021 ± 0.010
[4]; 0 h
  inhibition at 1 µg/mL: 100%
  inhibition at 2 µg/mL: 99.8%
  inhibition at 4 µg/mL: 99.9%
  inhibition at 8 µg/mL: 99.9%
[4]; 2 h
  inhibition at 1 µg/mL: 100%
  inhibition at 2 µg/mL: 99.9%
  inhibition at 4 µg/mL: 99.9%
  inhibition at 8 µg/mL: 99.8%
[4]; 4 h
  inhibition at 1 µg/mL: 100%
  inhibition at 2 µg/mL: 99.8%
  inhibition at 4 µg/mL: 99.8%
  inhibition at 8 µg/mL: 100%
[4]; 6 h
  inhibition at 1 µg/mL: 78.4%
  inhibition at 2 µg/mL: 93.4%
  inhibition at 4 µg/mL: 93.5%
  inhibition at 8 µg/mL: 98.4%
[5]
  MIC: 2 µg/mL (≈ 5.93 µM)

Reference: patent US7322965B2, “Infection-resistant medical devices” (priority 2002, dated 2008)
